Source: paper PMC10381170, “1,3,4-Oxadiazole and 1,3,4-Thiadiazole Nortopsentin Derivatives against Pancreatic Ductal Adenocarcinoma: Synthesis, Cytotoxic Activity, and Inhibition of CDK1” (Marine Drugs, 2023)

Key:
[1] = system: BxPC-3 cells; assay: SRB antiproliferative assay, BxPC-3; format: cell-based, human
Description: (§1) The cytotoxic activity of the nortopsentin derivatives 3b, 3e, 4c, 5b, and 6c on pancreatic cancer cells (BxPC-3, Panc-1, Suit-2, Capan-1, PaTu-T, primary PDAC-3 and resistant Panc-1-GR cells) was determined by the sulforhodamine B (SRB) chemosensitivity assay, as described previously. Cells were plated in 96-well flat-bottom plates at final concentrations ranging from 3000–5000 cells/well in 100 µL of medium. After a 24 h pre-incubation period, cells were treated with the compounds at nine screening concentrations (from 0.1 μM to 40 μM) in triplicate and incubated at 37 °C for 72 h. After the treatment, cells were fixed with 25 µL of cold 50% trichloroacetic acid (TCA) for each well and incubated at 4 °C for 1 h. Afterwards, plates were washed five times with demi-water and air-dried overnight. Then, the plates were stained with 50 µL of 0.4% SRB solution in 1% acetic acid for 15 min. The excess stain was rinsed off by placing the plates under running 1% acetic acid and allowed to dry at room temperature overnight. SRB staining was rinsed with 150 µL tris(hydroxymethyl)aminomethane solution pH = 8.8 (TRIS-base), and the optical density (OD) was read at 492 nm. Each assay was performed in triplicate and assays were repeated at least three times. The comparison of the average optical density of the growth in control wells with that in the sample wells allowed the estimation of the percentage of cell growth, using the following equation: % Cell Growth = (mean ODcompound − mean ODday zero plate)/(mean ODcells − mean ODday zero plate) × 100
(§2) The results obtained were adjusted by the day zero plate (wells containing cells growing for only 24 h) and normalized by the control cells (wells with untreated cells) to obtain the rate of viable cells.

[2] = system: Panc-1-GR cells; assay: SRB antiproliferative assay, gemcitabine-resistant Panc-1-GR; format: cell-based, human
Description: as §1, §2

[3] = system: Suit-2 cells; assay: SRB antiproliferative assay, Suit-2; format: cell-based, human
Description: as §1, §2

[4] = system: PaTu-T cells; assay: SRB antiproliferative assay, PaTu-T; format: cell-based, human
Description: as §1, §2

[5] = system: PDAC cells; assay: SRB antiproliferative assay, whole PDAC panel; format: cell-based; settings: Homo sapiens; seven PDAC models, 72 h; read-out: IC50 values, range over the PDAC cell panel
Description: as §1, with “The comparison of the average optical density of the growth in control wells with that in the sample wells allowed the estimation of the percentage of cell growth, using the following equation: % Cell Growth = (mean ODcompound − mean ODday zero plate)/(mean ODcells − mean ODday zero plate) × 100” left out

[6] = system: normal human skin fibroblasts Hs27; assay: SRB cytotoxicity on normal fibroblasts; format: cell-based
Description: The compound was tested at eight different concentrations ranging from 0.31 μM to 40 μM using the SRB assay. […] At the highest concentration tested (40 μM), only 18% growth inhibition was observed after 72 h of exposure. […] These findings provide evidence of the potential safety of compound 3b for further development as a therapeutic agent.
as §1

[7] = system: PDAC-3 cells; assay: Cell-cycle analysis by PI flow cytometry, PDAC-3; format: cell-based, human
Description: (§3) Cell cycle perturbation was analyzed by flow cytometry. Optimized numbers of cells (5 × 10^5 cells/mL) were seeded in 6-well plates. […] After treatment, the cells were harvested by trypsinization (250 µL trypsin-EDTA/well), incubated until the cells detached, re-suspended using the same medium used for culture, collected in specific FACS (Fluorescence Activated Cell Sorting) tubes, and washed with 1.5 mL phosphate-buffered saline (PBS). The samples were then centrifuged to form a pellet (5 min at 1500 rpm). These pellets were fixed in 1 mL of ice-cold 70% ethanol, added drop by drop during vortex, and placed in the refrigerator at 4 °C. After overnight incubation, the cells were washed twice with PBS, centrifuged (5 min at 1500 rpm), re-suspended in […] of RNase ([…]) and incubated for 30 min at 37 °C. Finally, […] of propidium iodide solution (PI, […]) was added, and the cell distribution in the various phases of the cell cycle was analyzed in a FACS Calibur instrument. Data analysis was carried out with FACSdiva software (Becton Dickinson), while cell cycle distribution was determined using Modfit software (Verity-Software, Topsham, ME, USA).

[8] = system: Suit-2 cells; assay: Cell-cycle analysis by PI flow cytometry, Suit-2; format: cell-based, human
Description: as §3

[9] = system: BxPC-3 cells; assay: Scratch wound-healing assay, BxPC-3; format: cell-based, human; settings: BxPC-3, 8 h, 4 × IC50, untreated = 100% wound closure
Description: Cell migration was assessed using a wound-healing assay, as described previously. A total of 5 × 10^4 cells/well were seeded in a 96-well plate, to form a confluent monolayer. Scratches were created in confluent cell layers using the sterile scratch tool. The detached cells following scratch induction were removed and new medium was added to the wells. Cells were next treated with compounds 3b and 5b at a concentration of 4 × IC50. Cells growing in a complete medium were maintained at 37 °C with a supply of 5% CO2/95% air atmosphere and 100% relative humidity. The progress of wound closure was observed and documented at various time points (0th, 4th, 8th, 20th, and 24th h) using phase-contrast microscopy. Pictures of the plates were taken using the Universal Grab 6.3 software (DCILabs) from a computer connected to a Leica microscope with a JAI TMC-1327 camera.
The percentage of migration was calculated using the following equation:%Migration = (Width of the wound at T = 0 − Width of the wound at T = X)/(Width of the wound at T = 0) × 100

[10] = Homo sapiens, 72 h, mean ± SEM, read-out: Half-maximal inhibitory concentration (IC50)
[11] = Suit-2, 2 μM, 24 h (control 23%)
[12] = Suit-2, 4-fold IC50, 24 h (control 23%)

SMILES: Cn1cc(-c2nnc(-c3cn(C)c4ncccc34)o2)c2ccccc21 [3b, 1-methyl-3-[5-(1-methyl-1H-indol-3-yl)-1,3,4-oxadiazol-2-yl]-7-azaindole]
- Cell growth percentage ([1]; BxPC-3, 10 μM, 72 h exposure): 11.10%
- IC50 ([1]; Homo sapiens, BxPC-3, 72 h, mean ± SEM, read-out: Half-maximal inhibitory concentration (IC50)): 2100 ± 6 nM
- Cell growth percentage ([2]; 10 μM, 72 h exposure): 22.47%
- IC50 [2, 10]: 8000 ± 2800 nM
- IC50 ([3]; Homo sapiens, Suit-2, 72 h, mean ± SEM, read-out: Half-maximal inhibitory concentration (IC50)): 1400 ± 740 nM
- Cell growth percentage ([3]; Suit-2, 10 μM, 72 h exposure): 18.34%
- Cell growth percentage ([4]; 10 μM, 72 h exposure): 17.13%
- IC50 [4, 10]: 3200 ± 420 nM
- IC50 [5]: 1400 to 8100 nM
- growth inhibition ([6]; Hs27, 40 μM (highest concentration), 72 h): 18%
- cytotoxicity towards normal fibroblast cells ([6]; Hs27, 0.31-40 μM): relatively non-toxic
- cell growth rate ([6]; Hs27, concentrations below 10 μM, 72 h): ~100%
- percentage of cells in G2-M phase ([7]; PDAC-3, 2 μM, 24 h (control 16%)): 23%
- percentage of cells in S phase ([7]; PDAC-3, 2 μM, 24 h (control 25%)): 23%
- percentage of cells in G0-G1 phase ([7]; PDAC-3, 2 μM, 24 h (control 59%)): 54%
- percentage of cells in G2-M phase ([7]; PDAC-3, 4-fold IC50, 24 h (control 16%)): 52%
- percentage of cells in S phase ([7]; PDAC-3, 4-fold IC50, 24 h (control 25%)): 19%
- percentage of cells in G0-G1 phase ([7]; PDAC-3, 4-fold IC50, 24 h (control 59%)): 29%
- percentage of cells in G2-M phase [8, 11]: 75%
- percentage of cells in S phase [8, 11]: 15%
- percentage of cells in G0-G1 phase ([8]; Suit-2, 2 μM, 24 h (control 54%)): 10%
- percentage of cells in G2-M phase [8, 12]: 76%
- percentage of cells in S phase [8, 12]: 14%
- percentage of cells in G0-G1 phase ([8]; Suit-2, 4-fold IC50, 24 h (control 54%)): 10%
- percentage of cells migrating [9]: 39%
- melting point: 239 °C
